Reference: patent US12275958B2, “Gut organoid and method for producing the same” (DAI NIPPON PRINTING CO., LTD., priority 2017, dated 2025)

Key:
[1] = system: human gut organoids; experiment: In vitro β-Ala-Lys-AMCA uptake by human gut organoids; assay type: cell-based; conditions: 25 μM, 4 hours at 37° C., fluorescence
Description: Gut organoids grown in the differentiation induction medium 2 were washed with PBS and cultured in DMEM containing 25 μM fluorophore-conjugated dipeptide β-Ala-Lys-AMCA (Biotrend Chemicals) for 4 hours at 37° C. […] All sample images were recorded under standard conditions. For each concentration, 3 independent assays were performed.

[2] = system: hESC-derived gut organoid showing peristalsis-like movement; experiment: In vitro contractility of human gut organoids (motile); assay type: cell-based; conditions: 0.2 μM, aspect ratio from video; for frequency / rate of gut organoid contractile movement: days 80-90 in culture
Description: A single human embryonic stem cell (hESC)-derived gut organoid showing peristalsis-like movement (days 80-90 in culture) was treated with the peristaltic stimulator histamine (0.2 μM) and the cholinergic antagonist atropine sulfate (0.2 μM). Contractility responses were recorded using an inverted microscope. Image analysis software CL-Quant version 3.10 (Nikon Corporation) was used to visualize movements in the gut organoid. First, in each frame of the time-lapse images, the software was used to identify a specific region of the organoid. Second, the software fitted an ellipse to this region and calculated the ratio of the longest to shortest diameter to obtain an aspect ratio. Changes in the aspect ratios with time were plotted on the chart. Videos were recorded at 30 frames per second.

| SMILES | uptake (peptide absorption) of the fluorophore-conjugated dipeptide by gut organoids [1] | uptake (peptide absorption) of the fluorophore-conjugated dipeptide by gut organoids ([1]; listed as β-Ala-Lys-N(c)-7-amino-4-methylcoumarin-3-acetic acid) | frequency / rate of gut organoid contractile movement [2] | contraction amplitude [2] |
| --- | --- | --- | --- | --- |
| Cc1c(CC(=O)NCCCC[C@H](NC(=O)CCN)C(=O)O)c(=O)oc2cc(N)ccc12 [β-Ala-Lys-AMCA, β-Ala-Lys-N(c)-7-amino-4-methylcoumarin-3-acetic acid] | capable of uptake | showed peptide absorption |  |  |
| NCCc1c[nH]cn1 [histamine] |  |  | increased |  |
| CN1[C@@H]2CC[C@H]1CC(OC(=O)C(CO)c1ccccc1)C2.CN1[C@@H]2CC[C@H]1CC(OC(=O)C(CO)c1ccccc1)C2.O=S(=O)(O)O (some centres unmarked) [atropine, atropine sulfate] |  |  | decreased | decreased |
